{
  "source": "patent US20080014323A1",
  "about": "“ANTIOXIDANT COMBINATIONS FOR USE IN FEED RATIONS TO IMPROVE ANTIOXIDANT STATUS OF RUMINANTS” (NOVUS INTERNATIONAL INC., priority 2006, published 2008)",
  "key": {"[1]": {"test": "Oil stability index (OSI) induction time", "type": "physicochemical", "settings": "soybean oil; 500 ppm; FIG. 1"}, "[2]": {"test": "Active oxygen method (AOM): peroxide value of oils or fats after oxidative stress", "type": "physicochemical", "settings": "soybean oil subjected to oxidative stress; 500 ppm; FIG. 1"}},
  "data": [
    {"molecule": "CCOc1ccc2c(c1)C(C)=CC(C)(C)N2", "note": "[ETX, 6-ethoxy-1,2-dihydro-2,2,4-trimethylquinoline]", "values": [
      {"measurement": "OSI induction time", "setting": "[1]", "value": "about 6 hr"},
      {"measurement": "peroxide values", "setting": "[2]", "value": "about 11 meq"}
    ]}
  ]
}
